The values that follow come from patent US20130259807A1, “CELL CULTURE SCREEN FOR AGENTS THAT CONTROL ADIPOGENESIS AND MYOFIBROBLAST DIFFERENTIATION” (THE REGENTS OF THE UNIVERSITY OF CALIFORNIA, priority 2010, published 2013).

The test relates to rat mesenchymal stem cells. Nature of the test: Culture screening adipogenesis assay (lipid accumulation, Oil Red O / BODIPY). To be noted: insulin in the progressing medium, positive control set as 100%. It is filed as cell-based. On the procedure:
To prepare adipogenesis initiation/priming medium, a IBMX standard solution ([…]) is diluted 1:1000 and a dexamethasone standard solution (1 μM dexamethasone standard solution (in DMSO)) is diluted 1:10,000 in DMEM+10% FCS. A typical cocktail of antibiotics can be added to restrict microbe growth. This initiation medium can be stored for up to 6 weeks at 4° C.
To prepare positive control progression medium, a standard insulin solution (10 μg/ml insulin) is diluted 1:1000 in DMEM+10% FCS. Antibiotics of choice are added to control growth of microbes. This control progression medium can be stored for up to 6 weeks at 4° C.
To prepare experimental/test (e.g., RHAMM blocking or other experimental adipogenic promoting reagent) progression medium, test agents are provided in a standard solution (e.g. 0.001-10 μg RHAMM antibody, peptide mimetic(s), or other test agent(s)). The test agent solution is diluted to the desired concentration (e.g. 1 ng-10 μg RHAMM peptide) in DMEM+10% FCS. […]
Cells for the adipogenesis screen can be plated as follows: The cells are trypsinized and then resuspended in 1 ml DMEM+10% CS to neutralize the trypsin. The cells are then counted. […]
The dye can be extracted with methanol:ethanol (1:1) mixture and read oil red O at 520 nm using an ELISA plate reader or for BODIPY® using a fluorometer that detects FITC.

With insulin, the “Extent of lipid accumulation (Oil Red O at 520 nm)” value is given as 100%.
